Measured values: US20120276064A1, “METHODS AND COMPOSITIONS FOR REJUVENATION AND EXPANSION OF STEM CELLS” (priority 2011, published 2012)

Test system: MuSCs transplanted into tibialis anterior muscle
Assay: Transplantation of cultured MuSCs into irradiated NOD/SCID mice, engraftment by bioluminescence imaging
Assay type: in vivo, mouse
Conditions: young MuSCs cultured one week on soft hydrogel with 10 μM; 100 cells transplanted; one month
Description: MuSC transplantation. MuSCs were transplanted immediately following FACS isolation or after collection from cell culture directly into the tibialis anterior muscle of recipient mice as previously described. Cells from GFP/Luciferase or Myf5^nLacZl+/Luciferase mice were transplanted into gender-matched, hindlimb-irradiated NOD/SCID (Jackson) mice. NOD/SCID (2-4 months of age, median 2 months) mice were anesthetized with ketamine (2.4 mg per mouse) and xylazine (240 μg per mouse) by intraperitoneal injection then were irradiated by a single dose of 18 Gy administered to the hindlimbs, with the rest of the body shielded in a lead jig. Transplantation was performed within three days post-irradiation. In syngeneic transplant studies, cells from old C57BL/6 mice were transplanted into gender-matched, littermate old C57BL/6 mice (Jackson) following culture for one week on soft hydrogels. Specifically, old C57BL/6 MuSCs were infected with a GFP/Luciferase lentivirus added at day 2 of culture for 24 hours. Recipient old C57BL/6 mice were acutely injured by a single 10 μl intramuscular injection of notexin (10 μg/ml; Latoxan, France) two days prior to cell transplantation, but were not irradiated. Freshly isolated or cultured cells were counted by hemocytometer and resuspended at desired cell concentrations in PBS with 2.5% goat serum and 1 mM EDTA. Cells were collected from hydrogel cultures by incubation with 0.5% trypsin in PBS for 2 min at 37° C. and counted using a hemocytometer. Cells were transplanted by intramuscular injection into the tibialis anterior muscle in a 10 μl volume.
Tissue histology. Recipient tibialis anterior muscle tissues were prepared for histology as previously described to analyze GFP expression. Transverse sections were incubated with anti-laminin (Millipore, Billerica, Calif.), anti-GFP (Invitrogen) antibodies, and/or anti-β-galactosidase (Abcam, Cambridge, Mass.) with appropriate secondary antibodies (Invitrogen). Nuclei were counter-stained with Hoechst 33342 (Invitrogen). Images were acquired with an AxioPlan2 epi-fluorescent microscope (Carl Zeiss Microimaging, Thornwood, N.Y.) with Plan NeoFluar 10×/0.30NA or 20×/0.75NA objectives (Carl Zeiss) and an ORCA-ER digital camera (Hamamatsu Photonics, Bridgewater, N.J.). Digital images were captured in OpenLab software (Improvision, Waltham, Mass.) and assembled in Photoshop software (Adobe, San Jose, Calif.) with consistent contrast adjustments across all images from the same stain.
Bioluminescence imaging. Bioluminescence imaging was performed using a Xenogen-100 system, as previously described. Briefly, mice were anesthetized under isofluorane and 100 μL luciferin (0.1 mmol/kg; Caliper LifeSciences, Hopkinton, Mass.) in PBS was administered by intraperitoneal injection. Following luciferin administration, images were acquired every minute for 15 min. Images acquired at 12 min post-luciferin injection were used for analysis. Digital images were recorded and analyzed using Living Image software (Caliper LifeSciences). Images were analyzed with a consistent region-of-interest (ROI) placed over each hindlimb to calculate a bioluminescence signal. A bioluminescence signal value of 80,000 photons/s was used to define a engraftment threshold, as this level corresponds to the histological detection of one or more GFP^+ myofiber (see FIG. 8A). BLI imaging was performed one month post-transplant unless otherwise stated.
MuSC culture and treatment. Following isolation, MuSCs were pelleted and resuspended into myogenic cell culture medium containing DMEM/F10 (50:50), 15% FBS, 2.5 ng/ml bFGF, and 1% penicillin/streptomycin. MuSCs were seeded at 1000 cells per well (24-well plate size wells, 2.0 cm^2 surface area) on laminin-tethered hydrogels of either 12 kPa (soft) or ˜10^6 kPa (rigid) rigidities. Cells were maintained at 37° C. in 5% CO2. Media was changed daily. […]

C[S+]([O-])c1ccc(-c2nc(-c3ccncc3)c(-c3ccc(F)cc3)[nH]2)cc1 (stereo not shown) [SB203580]
Transplant engraftment efficiency (in words): improves the transplant engraftment efficiency
